# Experimental data as given in the METLIN SMRT retention time set (Domingo-Almenara et al. 2019).
# Assay: gradient 5% acetonitrile 3 min, to 50% in 2 min, to 85% in 15 min, held 3 min, 100 µL/min
# Settings: column: Zorbax Extend-C18 2.1 x 50 mm; eluents: water / acetonitrile, 0.1% formic acid
# Method in brief: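 Pure standards were analyzed in mixtures of ~100 molecules using HPLC coupled to a quadrupole time-of-flight mass spectrometer, in both positive and negative ionization mode. Separation used a Zorbax Extend-C18 column (2.1 × 50 mm, 1.8 μm) at 100 μL/min, with water and acetonitrile each containing 0.1% formic acid. Dead and dwell volumes were 40 μL and 900 μL, and data were collected over 3 months. Retention time was read from computationally picked adduct peaks, each inspected manually.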
row,SMILES,RP-LC retention time [s]
1,O=C(Nc1nnc(Cc2ccccc2)s1)C1CC(=O)N(c2n[nH]c3ccccc23)C1 (stereo unspecified),730
2,Cc1ccc(NC(=O)Nc2ccccc2)c(=O)n1CC(=O)NCC1CCCO1 (stereo unspecified),697
3,CC(C)n1cnc(S(=O)(=O)N2CCCC(C(=O)Nc3ccc(F)c(Cl)c3)C2)c1 (stereo unspecified),848
4,Cc1cc(C)cc(NS(=O)(=O)c2cn(CC(C)C)c3ncccc23)c1,763
5,O=C(NCCc1ccncc1)C1CN(S(=O)(=O)c2ccccc2)CC12CCCCC2 (stereo unspecified),641
6,CSc1ncc(C(=O)NC2CC2)c(N)n1,543
7,CCCn1ccc2sc(C)c(C(=O)NC3CCCCCC3)c2c1=O,897
8,CCc1ccc(CNC(=O)Cc2c(C(=O)O)c(C)cn2C)cc1,815
9,CCCCNC(=O)CCC1CCN(c2cc(NCCC)ncn2)CC1,658
10,O=C(N[C@H]1C[C@@H]2C[C@H]1N(C(=O)COc1cccc(Cl)c1)C2)c1cccnc1,656
11,Cc1cc2nc(NC3=NCN(CC4CCCO4)CN3)nc(C)c2cc1C (stereo unspecified),683
12,COc1ccc2c(ccn2CC(=O)N[C@@H](CC(C)C)C(=O)O)c1,756
13,O=C1[C@H]2CN(Cc3c[nH]c4ccccc34)C[C@H]2C(=O)N1CCc1ccccc1,692
14,CN(C)C[C@@H]1CN(C2CCOCC2)C[C@H]1NS(=O)(=O)Cc1cccc(F)c1,553
15,O=C1NCCCn2cc(S(=O)(=O)N(Cc3ccccc3)c3ccccc3)cc21,808
16,CCOC(=O)C1=C(CN2CCCC(C(=O)OCC)C2)NC(=O)NC1c1ccc(C)cc1 (stereo unspecified),674
17,COc1ccc(CCNCc2ccc3c(c2)n(C)c(=O)n3C)cc1OC,587
18,CCC(C)C(NC(=O)c1ccc(OC)cc1)C(=O)Nc1nc2ccccc2[nH]1 (stereo unspecified),700
19,Cc1cccn2c(=O)c3cc(C(=O)NCCc4ccc(S(N)(=O)=O)cc4)n(C)c3nc12,757
20,CCCc1nc(-c2c(C)cc(C)nc2NC(=O)c2ccccc2Br)no1,927
21,CCCN(CC1CCOC1)S(=O)(=O)c1cc(F)ccc1OC (stereo unspecified),868
22,Cc1ccc(C(C)NC(=O)c2nnc(-c3ccc(S(=O)(=O)N(C)C)cc3)o2)c(C)c1 (stereo unspecified),984
23,COCCNC(=O)Cn1nc(C)c2c(C)n(-c3ccccc3)nc2c1=O,649
24,O=C(Cc1cn2cc(Cl)ccc2n1)Nc1ccccc1,614
25,CCc1ccc(NC(=O)CSC2=C(C#N)C3(CCCCC3)C(C#N)C(=O)N2)cc1 (stereo unspecified),1030
26,COc1ccc(NS(=O)(=O)c2cc(-c3cc(C(F)(F)F)on3)sc2C)cc1Cl,1140
27,CCOc1ccc(C(C)NC(=O)c2nnc(-c3ccc(S(=O)(=O)N(C)C)cc3)o2)cc1 (stereo unspecified),923
28,CCOc1ccc(-c2[nH]ncc2CNS(=O)(=O)Cc2cc(F)cc(F)c2)cc1,845
29,O=C(Cn1nc2n(c1=O)CCCCC2)Nc1ccc2c(c1)OCO2,655
30,CCN(CC)C(=O)c1cc2c(s1)CCC(C(=O)Nc1ccc3c(c1)OCO3)C2 (stereo unspecified),860

# Results, then the compound that gave them:
row,RP-LC retention time [s],SMILES
1,791,O=C(C1=CN(c2ccc(Cl)cc2)c2ccccc2S1(=O)=O)N1CCOCC1
2,863,CCOc1ccc(CNC(=O)c2cn3cc(Cl)ccc3n2)cc1
3,850,O=C(N[C@H]1C[C@@H]2C[C@H]1N(C(=O)c1ccc(F)c(Cl)c1)C2)c1ccccc1
4,782,Cc1noc(-c2cc(=O)n(CC(=O)NC3CCCC3)c3ccccc23)n1
5,1110,CCc1ccc(-c2nc(C3CC(=O)N(c4ccc(F)cc4)C3)no2)cc1 (stereo unspecified)
6,715,CC(C)NC(=O)N1CC(c2nc(-c3ccccc3)no2)C2(CCOCC2)C1 (stereo unspecified)
7,969,CCOC(=O)C1CCN(C(=O)C2CCCN(c3nc4cccnc4n(CC)c3=O)C2)CC1 (stereo unspecified)
8,656,CCNc1cc(N2CCCC(CCC(=O)NCc3ccccc3OC)C2)ncn1 (stereo unspecified)
9,1050,O=C(Nc1ccc(Br)cc1F)N1CCc2nc(-c3ccc(F)cc3)ncc2C1
10,1030,Cc1ccc(CNC(=O)C2(C)CCCN(C(=O)Nc3ccc(F)c(Cl)c3)C2)cc1 (stereo unspecified)
11,953,O=C(CN1C(=O)CCCc2cc(S(=O)(=O)N3CCCCCC3)ccc21)Nc1ccccc1F
12,1010,Cc1cc(N2CCN(c3ccccn3)CC2)n2nc(C(F)(F)F)c(-c3ccc(Cl)cc3)c2n1
13,614,COc1ccc(C)cc1NC(=O)C(=O)NCCN1CCN(c2ccccc2F)CC1
14,946,O=C(Nc1ccc(F)cc1F)N1CCCC1c1nc(-c2ccc(F)cc2F)no1 (stereo unspecified)
15,595,O=C(c1nc2ncccn2n1)N1CCCn2cc(-c3ccccc3)nc21
16,658,O=C(c1cnc2sc3c(n2c1=O)CCC3)N1CCN(c2ncccn2)CC1
17,589,Cn1c(N2CCCC(C(=O)NCCN3CCN(c4ccccc4)CC3)C2)cc(=O)n(C)c1=O (stereo unspecified)
18,728,O=C(CSc1nc(N2CCc3ccccc3C2)nc2ccccc12)NC1CCCCC1

row,RP-LC retention time [s],SMILES
1,929,Cc1nc(-c2csc(S(=O)(=O)N3CCCC(C(=O)Nc4ccccc4F)C3)c2)no1 (stereo unspecified)
2,767,O=C(Cc1cccs1)N1CCN(C(=O)c2cc3ccccc3[nH]2)CC1
3,758,CCc1cccc(NC(=O)C2CCCN(c3ncnc4c3nc3n4CCCCC3)C2)c1 (stereo unspecified)
4,623,O=C(NCc1ccccc1F)c1ccc2ncnc(N3CCCC3)c2c1
5,646,O=C(NCc1ccc(F)cc1)c1ccc2ncnc(N3CCCC3)c2c1
6,595,CCN1CCN(CCCNC(=O)c2cc(-c3ccc(C)c(C)c3)[nH]c2C)CC1
7,617,CC(C)CN1C(=O)c2ccccc2C(C(=O)NCCN2CCN(C)CC2)C1c1cccs1 (stereo unspecified)
8,582,COc1ccc(-c2cc(N3CCCC(C(=O)Nc4nccs4)C3)ncn2)cc1 (stereo unspecified)
9,738,O=C(Cc1ccccc1Cl)NC1CCN(c2cc(-c3cccs3)[nH]n2)C1 (stereo unspecified)
10,596,Cc1ccc(C)c(NC(=O)Cn2c(N)nc(C)cc2=O)c1
11,603,Cc1cc(=O)n(CC(=O)NCc2ccccc2Cl)c(N)n1
12,778,COC(=O)c1ccc(NC(=O)Cn2nc3nc(N4CCCCC4C)ccn3c2=O)cc1 (stereo unspecified)
13,595,Cc1ccc(C(=O)N2CC(n3cc(COCC4CC4)nn3)C2)c(=O)[nH]1
14,901,O=C(c1c[nH]c2ccccc12)N1CCC(c2nc(-c3ccccc3)no2)C1 (stereo unspecified)
15,972,Cc1ccc(NC(=O)N(C)CCc2noc(COc3cccc(C)c3)n2)cc1
16,762,Cc1csc(-c2ccc(N3CCN(C(=O)c4ccsc4)CC3)nc2)n1
17,582,CN1CCN(CCCNC(=O)CCCn2c(=O)c3cccn3c3ccc(F)cc32)CC1
18,822,Cn1c(=O)n([C@H]2CCCN(S(=O)(=O)c3cccc4nsnc34)C2)c2ncccc21
